Results reported in PubChem BioAssay AID1963862 (Molecular Pharmacology Branch, DTP, NCI, 2024).

Tested on: KRAS patient-derived spheroids with HUVEC/MSC, viability
Assay: Anticancer human tumor 941728-121-R-J1-PDC patient-derived lung adenocarcinoma cell line growth inhibition [KRAS2]
Details: for IC50: curve of first compound; for viability, T/C: stronger effect = lower value
Procedure, shortened: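 Combination screen of spheroid viability in tumor-cell co-cultures with endothelial (HUVEC) and mesenchymal stem cell stroma. Each agent was tested in half-log dilutions, topping at clinical Cmax or at 10 microM without a known Cmax.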

[1] = second compound 0.1 µM, first compound 0.0316 µM
[2] = second compound 0.1 µM, first compound 0.1 µM
[3] = second compound 0.1 µM, first compound 0.316 µM
[4] = second compound 0.1 µM, first compound 1 µM
[5] = second compound 0.1 µM, first compound 3.16 µM
[6] = second compound 0.1 µM, first compound 10 µM
[7] = second compound 0.316 µM, first compound 0.0316 µM
[8] = second compound 0.316 µM, first compound 0.1 µM
[9] = second compound 0.316 µM, first compound 0.316 µM
[10] = second compound 0.316 µM, first compound 1 µM
[11] = second compound 0.316 µM, first compound 3.16 µM
[12] = second compound 0.316 µM, first compound 10 µM
[13] = second compound 1 µM, first compound 0.0316 µM
[14] = second compound 1 µM, first compound 0.1 µM
[15] = second compound 1 µM, first compound 0.316 µM
[16] = second compound 1 µM, first compound 1 µM
[17] = second compound 1 µM, first compound 3.16 µM
[18] = second compound 1 µM, first compound 10 µM
[19] = second compound 3.16 µM, first compound 0.0316 µM
[20] = second compound 3.16 µM, first compound 0.1 µM
[21] = second compound 3.16 µM, first compound 0.316 µM
[22] = second compound 3.16 µM, first compound 1 µM
[23] = second compound 3.16 µM, first compound 3.16 µM
[24] = second compound 3.16 µM, first compound 10 µM
[25] = second compound 10 µM, first compound 0.0316 µM
[26] = second compound 10 µM, first compound 0.1 µM
[27] = second compound 10 µM, first compound 0.316 µM
[28] = second compound 10 µM, first compound 1 µM
[29] = second compound 10 µM, first compound 3.16 µM
[30] = second compound 10 µM, first compound 10 µM
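Note: spheroids exposed to agents for seven days before readout.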

Q: What does the source list for `CC1OCC2(CCN(c3cnc(Sc4ccnc(N)c4Cl)c(N)n3)CC2)C1N` (stereo not given) + COc1cc2nc(C)nc(NC(C)c3cc(N)cc(C(F)(F)F)c3)c2cc1OC1CCOC1?
A: IC50 (second compound 0.1 µM): < 31.6 nM; IC50 (second compound 0.316 µM): < 31.6 nM; IC50 (second compound 1 µM): < 31.6 nM; IC50 (second compound 3.16 µM): < 31.6 nM; IC50 (second compound 10 µM): < 31.6 nM; viability, T/C [1]: 49.4%; viability, T/C [2]: 43.1%; viability, T/C [3]: 38.4%; viability, T/C [4]: 36.1%; viability, T/C [5]: 39%; viability, T/C [6]: 34.5%; viability, T/C [7]: 47.2%; viability, T/C [8]: 41.4%; viability, T/C [9]: 34.1%; viability, T/C [10]: 35.7%; viability, T/C [11]: 37%; viability, T/C [12]: 39.7%; viability, T/C [13]: 48%; viability, T/C [14]: 43.8%; viability, T/C [15]: 35%; viability, T/C [16]: 36.2%; viability, T/C [17]: 32.3%; viability, T/C [18]: 29.9%; viability, T/C [19]: 43.6%; viability, T/C [20]: 39%; viability, T/C [21]: 35.3%; viability, T/C [22]: 33.4%; viability, T/C [23]: 29.5%; viability, T/C [24]: 26.6%; viability, T/C [25]: 30%; viability, T/C [26]: 21.2%; viability, T/C [27]: 13.1%; viability, T/C [28]: 13.3%; viability, T/C [29]: 11.6%; viability, T/C [30]: 5.88%

Q: How did the IC50 (second compound 0.1 µM) turn out when `CC(=O)Nc1cccc(-n2c(=O)n(C3CC3)c(=O)c3c(Nc4ccc(I)cc4F)n(C)c(=O)c(C)c32)c1` + CNCc1ccccc1-c1csc(C(C)Nc2nc(C)nc3cc(OC)c(OC)cc23)c1 was run?
A: The IC50 was 0.119 nM.

Q: And the IC50 (second compound 0.316 µM)?
A: The IC50 was < 0.1 nM.

Q: What about the IC50 (second compound 1 µM) of the same compound?
A: Its IC50 is < 0.1 nM.

Q: What about the IC50 (second compound 3.16 µM) of the same compound?
A: Its IC50 is < 0.1 nM.

Q: What about the IC50 (second compound 10 µM) of the same compound?
A: Its IC50 is < 0.1 nM.

Q: And the viability, T/C (second compound 0.1 µM, first compound 0.0001 µM)?
A: The viability, T/C was 51.3%.

Q: What about the viability, T/C (second compound 0.1 µM, first compound 0.000316 µM) of the same compound?
A: Its viability, T/C is 46.8%.

Q: And the viability, T/C (second compound 0.1 µM, first compound 0.001 µM)?
A: The viability, T/C was 38.1%.

Q: What about the viability, T/C (second compound 0.1 µM, first compound 0.00316 µM) of the same compound?
A: Its viability, T/C is 37.7%.

Q: And the viability, T/C (second compound 0.1 µM, first compound 0.01 µM)?
A: The viability, T/C was 35.7%.

Q: And the viability, T/C [1]?
A: Its viability, T/C is 27.9%.

Q: And the viability, T/C (second compound 0.316 µM, first compound 0.0001 µM)?
A: The viability, T/C was 44.4%.

Q: And the viability, T/C (second compound 0.316 µM, first compound 0.000316 µM)?
A: The viability, T/C was 44.1%.

Q: What about the viability, T/C (second compound 0.316 µM, first compound 0.001 µM) of the same compound?
A: The viability, T/C was 34.2%.

Q: What about the viability, T/C (second compound 0.316 µM, first compound 0.00316 µM) of the same compound?
A: The viability, T/C was 31.8%.

Q: What about the viability, T/C (second compound 0.316 µM, first compound 0.01 µM) of the same compound?
A: Its viability, T/C is 30.5%.

Q: What about the viability, T/C [7] of the same compound?
A: Its viability, T/C is 21.9%.

Q: And the viability, T/C (second compound 1 µM, first compound 0.0001 µM)?
A: The viability, T/C was 35.3%.

Q: And the viability, T/C (second compound 1 µM, first compound 0.000316 µM)?
A: The viability, T/C was 33%.

Q: And the viability, T/C (second compound 1 µM, first compound 0.001 µM)?
A: Its viability, T/C is 26.8%.

Q: And the viability, T/C (second compound 1 µM, first compound 0.00316 µM)?
A: The viability, T/C was 23%.

Q: What about the viability, T/C (second compound 1 µM, first compound 0.01 µM) of the same compound?
A: Its viability, T/C is 14%.

Q: What about the viability, T/C [13] of the same compound?
A: Its viability, T/C is 7.52%.

Q: And the viability, T/C (second compound 3.16 µM, first compound 0.0001 µM)?
A: The viability, T/C was 0.3%.

Q: And the viability, T/C (second compound 3.16 µM, first compound 0.000316 µM)?
A: The viability, T/C was 0.14%.

Q: What about the viability, T/C (second compound 3.16 µM, first compound 0.001 µM) of the same compound?
A: The viability, T/C was 0.76%.

Q: And the viability, T/C (second compound 3.16 µM, first compound 0.00316 µM)?
A: The viability, T/C was 0.17%.

Q: And the viability, T/C (second compound 3.16 µM, first compound 0.01 µM)?
A: The viability, T/C was 0.16%.

Q: What about the viability, T/C [19] of the same compound?
A: The viability, T/C was 0.25%.

Q: What about the viability, T/C (second compound 10 µM, first compound 0.0001 µM) of the same compound?
A: Its viability, T/C is 0.16%.

Q: What about the viability, T/C (second compound 10 µM, first compound 0.000316 µM) of the same compound?
A: Its viability, T/C is 0.16%.

Q: And the viability, T/C (second compound 10 µM, first compound 0.001 µM)?
A: The viability, T/C was 0.17%.

Q: What about the viability, T/C (second compound 10 µM, first compound 0.00316 µM) of the same compound?
A: Its viability, T/C is 0.15%.

Q: What about the viability, T/C (second compound 10 µM, first compound 0.01 µM) of the same compound?
A: Its viability, T/C is 0.14%.

Q: And the viability, T/C [25]?
A: The viability, T/C was 0.26%.

Q: With `COc1cc2nccc(Oc3ccc(NC(=O)C4(C(=O)Nc5ccc(F)cc5)CC4)cc3)c2cc1OC` + COc1cc2nc(C)nc(NC(C)c3cc(N)cc(C(F)(F)F)c3)c2cc1OC1CCOC1 as the compound, how does the IC50 (second compound 0.1 µM) read?
A: The IC50 was 144 nM.

Q: What about the IC50 (second compound 0.316 µM) of the same compound?
A: The IC50 was < 31.6 nM.

Q: And the IC50 (second compound 1 µM)?
A: The IC50 was < 31.6 nM.

Q: What about the IC50 (second compound 3.16 µM) of the same compound?
A: The IC50 was < 31.6 nM.

Q: What about the IC50 (second compound 10 µM) of the same compound?
A: The IC50 was < 31.6 nM.

Q: What about the viability, T/C [1] of the same compound?
A: Its viability, T/C is 57.4%.

Q: And the viability, T/C [2]?
A: The viability, T/C was 55.2%.

Q: What about the viability, T/C [3] of the same compound?
A: Its viability, T/C is 38.9%.

Q: What about the viability, T/C [4] of the same compound?
A: Its viability, T/C is 25.9%.

Q: What about the viability, T/C [5] of the same compound?
A: Its viability, T/C is 31.4%.

Q: What about the viability, T/C [6] of the same compound?
A: Its viability, T/C is 57.4%.

Q: What about the viability, T/C [7] of the same compound?
A: The viability, T/C was 34.7%.

Q: And the viability, T/C [8]?
A: The viability, T/C was 41.7%.

Q: What about the viability, T/C [9] of the same compound?
A: The viability, T/C was 27.6%.

Q: What about the viability, T/C [10] of the same compound?
A: Its viability, T/C is 17.3%.

Q: And the viability, T/C [11]?
A: The viability, T/C was 21.7%.

Q: And the viability, T/C [12]?
A: Its viability, T/C is 35.6%.

Q: What about the viability, T/C [13] of the same compound?
A: The viability, T/C was 25.5%.

Q: What about the viability, T/C [14] of the same compound?
A: Its viability, T/C is 29.6%.

Q: What about the viability, T/C [15] of the same compound?
A: Its viability, T/C is 23.3%.

Q: What about the viability, T/C [16] of the same compound?
A: Its viability, T/C is 9.41%.

Q: What about the viability, T/C [17] of the same compound?
A: The viability, T/C was 17.2%.

Q: What about the viability, T/C [18] of the same compound?
A: Its viability, T/C is 29.5%.

Q: And the viability, T/C [19]?
A: Its viability, T/C is 30.9%.

Q: And the viability, T/C [20]?
A: The viability, T/C was 35.1%.

Q: What about the viability, T/C [21] of the same compound?
A: The viability, T/C was 19.7%.

Q: And the viability, T/C [22]?
A: Its viability, T/C is 3.69%.

Q: And the viability, T/C [23]?
A: The viability, T/C was 0.11%.

Q: And the viability, T/C [24]?
A: Its viability, T/C is 35.2%.

Q: And the viability, T/C [25]?
A: Its viability, T/C is 13.3%.

Q: And the viability, T/C [26]?
A: The viability, T/C was 2.98%.

Q: What about the viability, T/C [27] of the same compound?
A: The viability, T/C was 1.83%.

Q: What about the viability, T/C [28] of the same compound?
A: Its viability, T/C is 0.25%.

Q: What about the viability, T/C [29] of the same compound?
A: The viability, T/C was 0.13%.

Q: What about the viability, T/C [30] of the same compound?
A: Its viability, T/C is 15.1%.
